In the NIST ThermoML archive (doi:10.1016/j.fluid.2008.08.012):

Legend:
[1] = for mass density: 298.15 K, 101.33 kPa; for mass density / vapor or sublimation pressure: Liquid; for vapor or sublimation pressure: Ebulliometric method (Recirculating still); for surface tension liquid-gas: 303.15 K, Maximal bubble pressure
[2] = refractive index (Na D-line) (dimensionless); details: 298.15 K; 101.33 kPa; Liquid; Standard Abbe refractometry
[3] = xn = mol fraction of the nth substance listed; details: 303.15 K, Maximal bubble pressure

COC(C)(C)C [2-methoxy-2-methylpropane]
Details | mass density [kg/m3] | refractive index | surface tension liquid-gas [mN/m]
[1] | 735.45 | – | 18.7
[2] | – | 1.36766 | –

[1]
Details | vapor or sublimation pressure [kPa]
301.31 K | 38.06
303.21 K | 41.03
305.59 K | 45.05
308.33 K | 50.06
310.85 K | 55.05
313.2 K | 60.06
315.39 K | 65.03
317.47 K | 70.07
319.41 K | 75.05
321.27 K | 80.08
323.02 K | 85.05
324.7 K | 90.06
325.98 K | 94
326.31 K | 95.05
328.24 K | 101.34

COC(C)(C)C [2-methoxy-2-methylpropane] + C1CCCCC1
[3]
Details | surface tension liquid-gas [mN/m]
x1 = 0.046 | 23.39
x1 = 0.1 | 22.97
x1 = 0.205 | 22.23
x1 = 0.308 | 21.57
x1 = 0.409 | 21.03
x1 = 0.51 | 20.58
x1 = 0.614 | 20.12
x1 = 0.716 | 19.71
x1 = 0.816 | 19.34
x1 = 0.901 | 19.05
x1 = 0.947 | 18.89

COC(C)(C)C [2-methoxy-2-methylpropane] + CC(C)=O
[3]
Details | surface tension liquid-gas [mN/m]
x1 = 0.031 | 22.14
x1 = 0.074 | 21.76
x1 = 0.171 | 21.13
x1 = 0.272 | 20.59
x1 = 0.378 | 20.09
x1 = 0.484 | 19.75
x1 = 0.585 | 19.47
x1 = 0.681 | 19.22
x1 = 0.784 | 18.98
x1 = 0.884 | 18.74
x1 = 0.94 | 18.55

CC(C)=O [acetone]
Details | mass density [kg/m3] | refractive index | surface tension liquid-gas [mN/m]
[1] | 784.23 | – | 22.45
[2] | – | 1.35732 | –

Details | vapor or sublimation pressure [kPa]
[1], 327.16 K | 94

C1CCCCC1 [cyclohexane]
Details | mass density [kg/m3] | refractive index | surface tension liquid-gas [mN/m]
[1] | 773.84 | – | 24.1
[2] | – | 1.42508 | –

Details | vapor or sublimation pressure [kPa]
[1], 351.37 K | 94
